Experimental data reported in patent US20050137806A1 (priority 2003, published 2005).
Where a name gives a salt, the structure may show the parent alone.

Test system: a cell line
Format: cell-based
Conditions: for mitotic index as a function of drug concentration (dose response path): FIG. 2A, drugs in aqueous DMSO, multiple concentrations, fraction of cells in mitosis
Experimental: As shown, four different drugs were tested against a cell line at multiple concentrations. Taxol, one of the drugs, was tested twice. For each drug at each concentration various images were taken to extract various cellular features by image analysis. In some cases, basic extracted features are analyzed using appropriate classification algorithm to provide higher-level biological classifications such as mitotic state. In FIG. 2A, the feature is “mitotic index” (a numerical classification of the cells an image on basis of the fraction of them in mitosis) shown as the dependent variable with respect to concentration in a two-dimensional plot.
All drugs were provided in an aqueous solution of dimethyl sulfoxide (DMSO). As a negative control, the cells were exposed to aqueous DMSO without any drug present. Normally, an aqueous DMSO solution is used as the solvent for delivering drugs to samples. The feature values extracted for cells exposed to the DMSO control are shown as signatures 207.
Another approach replaces the concentration variable (generally a level of stimulus variable) with another variable that can depict a trajectory but is relatively independent of potency. In other words, the chosen feature space is independent (or largely independent) of dose (concentration). […] This new variable is a measure of the number of cells that survived the treatment. Because the variable changes only when the drug begins taking effect (regardless of absolute concentration), it effectively puts all curves on the same potency scale. Using this plot, one can more rigorously classify Taxol and Cytochalasin A as having the same mechanism of action (based on mitotic index as the dependent variable).

| SMILES | mitotic index as a function of drug concentration (dose response path) | mitotic index versus number of cells (response path comparison) (FIG. 2B, concentration not displayed, number of cells that survived treatment as axis) |
| --- | --- | --- |
| CC[C@]1(O)C[C@@H]2CN(CCc3c([nH]c4ccccc34)[C@@](C(=O)OC)(c3cc4c(cc3OC)N(C)[C@H]3[C@@](O)(C(=O)OC)[C@H](OC(C)=O)[C@]5(CC)C=CCN6CC[C@]43[C@@H]65)C2)C1 [Vinblastine Sulfate] | relatively high numerical value of mitotic index at various concentrations |  |
| CC(=O)O[C@H]1C(=O)[C@@]2(C)[C@H]([C@H](OC(=O)c3ccccc3)[C@]3(O)C[C@H](OC(=O)[C@H](O)[C@@H](NC(=O)c4ccccc4)c4ccccc4)C(C)=C1C3(C)C)[C@]1(OC(C)=O)CO[C@@H]1C[C@@H]2O [Taxol] | S-shaped | act similarly to the tested concentrations of Vinblastine Sulfate |
| CC[C@@H]1/C=C/C=C/C[C@H](C)[C@H](O)[C@](C)(O)C(=O)[C@H](C)[C@@H](O)[C@H](C)C(=O)[C@H](C)[C@@H](O)[C@H](C)/C=C/C(=O)O[C@H]2[C@@H](C)[C@@H](CC1)O[C@@]1(CC[C@@H](C)[C@@H](C[C@H](C)O)O1)[C@@H]2C [Oligomycin A] | very little impact on mitotic index until relatively high concentrations are used |  |
| C=C1[C@@H](C)[C@H]2[C@H](Cc3ccccc3)NC(=O)[C@]23OC(=O)/C=C/C(=O)CCC[C@@H](C)C/C=C/[C@H]3[C@@H]1O [Cytochalasin A] | S-shaped |  |
